Data set [1] is described as follows: Plasma protein binding by equilibrium dialysis. The class given is in vitro ADME, human. The note with it: 37 °C; for fraction unbound at 5 h, 10 µg mL^−1: human, pooled human plasma, pH 7.4, equilibrium dialysis 5 h. The protocol: Plasma protein binding was assessed by equilibrium dialysis in a 96-well dialysis block (HTDialysis, Ledyard, CT, USA). Dialysis membranes (12–14 kDa) were soaked in deionised water for at least 60 min. Membranes were soaked overnight at 4 °C in ethanol:water 20:80% v/v and then rinsed with deionised water immediately prior to use. […] Spiked plasma (150 µL) was dialysed against isotonic phosphate buffer (pH 7.4) (150 µL) for 5 h at 37 °C with shaking at 100 rpm. Thermal degradation controls for each test compound were kept at 37 °C and 4 °C. Blank control plasma and buffer were included in the incubation. Following incubation, dialysed plasma samples and thermal degradation controls (50 µL) were added to drug-free buffer (50 µL), and dialysed buffer samples (50 µL) were added to drug-free plasma (50 µL). […] Supernatant (150 µL) was added to 50 µL deionised water and samples were analysed by UPLC-MS/MS as described above. Dialysed buffer from each well was tested for protein contamination using BCA protein assay reagent to determine whether membranes had been compromised.
Bu = Analyte/IS ratio determined in buffer side (2) Fraction unbound, fu=(100−% bound)/100

Data set [2] in a line: Metabolic stability, pooled human liver microsome incubations. The settings on record: for Predicted In Vivo Hepatic Clearance, CLH: from pHLM CLint, well-stirred model with plasma fu, Q 21 mL min^−1 kg^−1; for CLint scaled at 0.5 µM / half-life at 0.5 µM: human, microsomes; for CLint scaled at 0.5 µM: pH 7.4, Intrinsic clearance; for half-life at 0.5 µM: pH 7.4, T1/2 (min).

Data set [3] is described as follows: Short-term plasma stability with and without esterase inhibitors. The settings on record: 3 h, 37 °C; for remaining at 3 h, 5 µM: human, pH 7.4, Parent Compound Remaining (%).
Experimental: The pooled plasma used for both plasma stability and plasma binding studies originated from 50 donors, collected as whole blood from donors in the United States at an FDA-approved collection center, processed into plasma by centrifugation and immediately frozen (Innovative Research; Novi, MI, USA) and purchased from Patricell (Nottingham, UK). […] Stock solutions were prepared in DMSO. […] For incubations without inhibitor an equivalent volume of DMSO was included. Plasma mixture was pre-incubated at 37 °C for 5 min. Test compounds (5 µM) and procaine (positive control, 50 µM) were added to pre-warmed plasma mixture containing inhibitors. Incubation volume was 1 mL. Samples were mixed and 80 µL was immediately sampled and quenched into 200 µL ACN spiked with donepezil (internal standard (IS), 50 ng mL^−1). […] Peak area ratio of analyte to IS was used to determine half-lives of test compounds in plasma, both with and without the presence of esterase inhibitors.
The human plasma used was pooled from 50 donors, and was collected as whole blood from donors in
the United States at an FDA-approved collection center, processed into plasma by centrifugation and
The stability of the tested SCRAs, select metabolites and procaine control in pooled human plasma over
inhibitors bis(4-nitrophenyl) phosphate (BNPP) and phenyl methyl sulphonyl fluoride (PMSF) is
Data set [4] relates to pooled human cryopreserved hepatocytes (pHHeps). Description: Metabolic stability, pooled human cryopreserved hepatocyte incubations. The note with it: for Predicted In Vivo Hepatic Clearance, CLH: from pHHeps CLint, well-stirred model with plasma fu, Q 21 mL min^−1 kg^−1; for T1/2: pHHeps 0.25 million cells mL^−1, 0.5 µM, 37 °C, n ≥ 3 ± SD; for Intrinsic clearance, CLint: alternative hepatocyte cell density 99x10^6 hepatocytes per gram liver.

Assay in data set [5]: as above
The note with it: human, hepatocytes; for CLint scaled at 0.5 µM: Intrinsic clearance, pHHeps, alternative hepatocyte cell density 99x10^6 hepatocytes per gram liver; for half-life at 0.5 µM: T1/2 (min), pHHeps 0.25 million cells mL^−1, 0.5 µM, 37 °C, n ≥ 3 ± SD.

Where [6] appears, read: equilibrium dialysis 5 h, 10 µg mL^−1.
[7] abbreviates: pHLM 0.5 mg mL^−1, 0.5 µM, NADPH, 37 °C, n ≥ 3 ± SD.
Setting [8] is: pHLM, alternative microsomal scaling factor 32 mg microsomal protein per gram liver.
Setting [9] is: pHLM, alternative microsomal scaling factor 45 mg microsomal protein per gram liver.
The mark [10] stands for this setting: pHLM, scaling factor 32 mg microsomal protein per gram liver.
Where [11] appears, read: pHLM, scaling factor 45 mg microsomal protein per gram liver.
Setting [12] is: pHHeps, 99x10^6 hepatocytes per gram liver.
Where [13] appears, read: plasma, read-out: Fraction Unbound (fu).
[14] abbreviates: Esterase Inhibitors, pH 7.4, BNPP and PMSF 500 µM each.
[15] abbreviates: plasma, No Esterase Inhibitors, pH 7.4, pooled human plasma.

Like-named read-outs stand apart in the source and are kept apart here.

We go through four compounds from article PMC7961380, “A Systematic Study of the In Vitro Pharmacokinetics and Estimated Human In Vivo Clearance of Indole and Indazole-3-Carboxamide Synthetic Cannabinoid Receptor Agonists Detected on the Illicit Drug Market” (Molecules, 2021).

Regarding `C=CCCCn1cc(C(=O)N[C@@H](C(=O)OC)C(C)(C)C)c2ccccc21` [(R)-MDMB-4en-PICA (12), methyl 3,3-dimethyl-2-[1-(pent-4-en-1-yl)-1H-indole-3-carboxamido]butanoate], the “PPB (%)” value in data set [1] (setting [6]) is 94.7 ± 1.11%. Also, the “Fraction Unbound (fu)” value in data set [1] (equilibrium dialysis 5 h, plasma) stood at 0.053 ± 0.0111. Further, the “Predicted In Vivo Hepatic Clearance, CLH” value in data set [2] was 9.81 ± 0.75 mL/min/kg; in data set [4] it was 6.42 ± 0.62 mL/min/kg. Further, the “Hepatic extraction ratio, EH” value in data set [2] (from pHLM incubations) is 0.47 ± 0.036; in data set [2] (setting [10]) it was 0.35 ± 0.033; in data set [2] (setting [11]), 0.43 ± 0.035; in data set [4] (from pHHeps incubations), 0.31 ± 0.029; in data set [4] (setting [12]) it was 0.29 ± 0.028. Further, the “T1/2” value turned out to be 5.4 ± 0.74 min in data set [2] (setting [7]) and 44 ± 6.3 min in data set [4]. The “% parent compound remaining, Average” value in data set [2] (pHLM, 3 min) turned out to be 67.7%; in data set [2] (pHLM, 6 min) it was 47.7%; in data set [2] (pHLM, 9 min), 31.7%; in data set [2] (pHLM, 15 min) it was 13.8%; in data set [2] (pHLM, 30 min), 1.7%; in data set [4] (pHHeps, 3 min), 90.1%. For the same compound, the “% parent compound remaining, Average” value is reported as 81.5% in data set [4] (pHHeps, 6 min); 83.7% in data set [4] (pHHeps, 9 min); 79.3% in data set [4] (pHHeps, 15 min); 61.6% in data set [4] (pHHeps, 30 min); 46.4% in data set [4] (pHHeps, 45 min); 40.6% in data set [4] (pHHeps, 60 min). The “Intrinsic clearance, CLint” value in data set [2] (setting [8]) stood at 213 mL/min/kg; in data set [2] (setting [9]), 300 mL/min/kg; in data set [4] (pHHeps) it was 162 ± 22.16 mL/min/kg. The “Microsomal Intrinsic Clearance, CLint micr” value in data set [2] (pHLM, n ≥ 3 ± SD) is listed as 0.260 ± 0.040 mL min^−1 mg Microsomal Protein^−1. Besides, the “Predicted in vivo hepatic clearance, CLH” value in data set [2] (setting [10]) was 7.32 ± 0.70 mL/min/kg; in data set [2] (setting [11]) it was 9.01 ± 0.74 mL/min/kg; in data set [4] (setting [12]), 6.08 ± 0.60 mL/min/kg. Further, the “Parent Compound Remaining (%), Esterase Inhibitors” value in data set [3] (pH 7.4, BNPP and PMSF 500 µM each) worked out at 87.7 ± 11.0%. Also, the “Parent Compound Remaining (%), No Esterase Inhibitors” value in data set [3] (pH 7.4, pooled human plasma) worked out at 90.3 ± 5.4%.

As for `COC(=O)[C@H](NC(=O)c1nn(Cc2ccc(F)cc2)c2ccccc12)C(C)(C)C` [(R)-MDMB-FUBINACA (6)], the CLint scaled at 0.5 µM in data set [2] (setting [8]) is 58.2 mL/min/kg; in data set [2] (setting [9]), 81.8 ± 10.5 mL/min/kg; in data set [5], 221 mL/min/kg. For the same compound, the half-life at 0.5 µM is 20 ± 2.5 min in data set [2] (setting [7]) and 32 ± 5.4 min in data set [5]. In addition, the “% parent compound remaining, Average” value in data set [2] (pHLM, 3 min) was determined as 77.3%; in data set [2] (pHLM, 6 min), 75.0%; in data set [2] (pHLM, 9 min), 70.2%; in data set [2] (pHLM, 15 min), 57.2%; in data set [2] (pHLM, 30 min) it was 33.3%; in data set [4] (pHHeps, 3 min), 93.0%. The “% parent compound remaining, Average” value was 82.9% in data set [4] (pHHeps, 6 min); 77.6% in data set [4] (pHHeps, 9 min); 70.2% in data set [4] (pHHeps, 15 min); 53.1% in data set [4] (pHHeps, 30 min); 57.7% in data set [4] (pHHeps, 45 min); 41.1% in data set [4] (pHHeps, 60 min). In data set [2] (pHLM, n ≥ 3 ± SD), the “Microsomal Intrinsic Clearance, CLint micr” value is 0.071 ± 0.009 mL min^−1 mg Microsomal Protein^−1.

On to `COC(=O)[C@@H](NC(=O)c1nn(CCCCF)c2ccccc12)C(C)(C)C` [(S)-4F-MDMB-BINACA (4), methyl 2-[1-(4-fluorobutyl)-1H-indazole-3-carboxamido]-3,3-dimethylbutanoate], for which the “PPB (%)” value in data set [1] (setting [6]) is listed as 93.9 ± 0.28%. Further, the fraction unbound at 5 h, 10 µg mL^−1 in data set [1] (setting [13]) turned out to be 0.061 ± 0.0028. In addition, the figures for the “Predicted In Vivo Hepatic Clearance, CLH” value in data set [2] and in data set [4] were 7.51 ± 0.88 mL/min/kg and 12.08 ± 0.23 mL/min/kg, respectively. Also, the “Hepatic extraction ratio, EH” value in data set [2] (from pHLM incubations) came to 0.36 ± 0.042; in data set [2] (setting [10]), 0.25 ± 0.034; in data set [4] (from pHHeps incubations) it was 0.58 ± 0.011; in data set [4] (setting [12]), 0.56 ± 0.011. Also, the CLint scaled at 0.5 µM in data set [2] (setting [8]) was 118 mL/min/kg; in data set [2] (setting [9]) it was 165 mL/min/kg. This compound also yielded a half-life at 0.5 µM in data set [2] (setting [7]) of 9.9 ± 1.9 min. The “% parent compound remaining, Average” value in data set [2] (pHLM, 3 min) is reported as 74.9%; in data set [2] (pHLM, 6 min), 63.6%; in data set [2] (pHLM, 9 min), 50.4%; in data set [2] (pHLM, 15 min) it was 32.7%; in data set [2] (pHLM, 30 min) it was 17.0%; in data set [4] (pHHeps, 3 min) it was 82.3%. Also, the “% parent compound remaining, Average” value is 73.7% in data set [4] (pHHeps, 6 min); 69.2% in data set [4] (pHHeps, 9 min); 53.9% in data set [4] (pHHeps, 15 min); 25.8% in data set [4] (pHHeps, 30 min); 12.5% in data set [4] (pHHeps, 45 min); 6.2% in data set [4] (pHHeps, 60 min). Moreover, the “Microsomal Intrinsic Clearance, CLint micr” value in data set [2] (pHLM, n ≥ 3 ± SD) was 0.143 ± 0.025 mL min^−1 mg Microsomal Protein^−1. For the same compound, the figures for the “Predicted in vivo hepatic clearance, CLH” value in data set [2] (setting [10]), in data set [2] (setting [11]) and in data set [4] (setting [12]) were 5.33 mL/min/kg, 6.78 mL/min/kg and 11.68 ± 0.24 mL/min/kg, respectively. In addition, the amount remaining at 3 h, 5 µM came to 96 ± 2.9% in data set [3] (setting [14]) and 93.1 ± 5.1% in data set [3] (setting [15]). Further, the “T1/2” value in data set [4] turned out to be 16 ± 0.74 min. In addition, the “Intrinsic clearance, CLint” value in data set [4] (pHHeps) was found to be 432 ± 20.0 mL/min/kg.

As to `CC(C)[C@H](NC(=O)c1nn(CC2CCCCC2)c2ccccc12)C(N)=O` [(S)-AB-[…] (11), N-[1-amino-3-methyl-1-oxobutan-2-yl]-1-(cyclohexylmethyl)-1H-indazole-3-carboxamide], the fraction unbound at 5 h, 10 µg mL^−1 in data set [1] (10 µg mL^−1, read-out: PPB (%) (converted)) is 0.028; in data set [1] (setting [13]), 0.028 ± 0.0219. Also, the CLint scaled at 0.5 µM in data set [2] (setting [8]) amounted to 42.1 mL/min/kg; in data set [2] (setting [9]) it was 59.2 mL/min/kg; in data set [5] it was 194 mL/min/kg. Also, the half-life at 0.5 µM is 27 ± 2.9 min in data set [2] (setting [7]) and 39 ± 8.8 min in data set [5]. The values for the amount remaining at 3 h, 5 µM in data set [3] (setting [14]) and in data set [3] (setting [15]) were 97.9 ± 7% and 98.2 ± 7.2%, respectively.

The CLint scaled is the rate of metabolic loss divided by the concentration. A higher CLint scaled goes with faster metabolism. What is called half-life is the time in which the quantity being followed falls by half. Lower therefore signals fast loss. By amount remaining is commonly meant what is left of the initial amount, in per cent.
